Measurements reported in PubChem BioAssay AID1963979 (Molecular Pharmacology Branch, DTP, NCI, 2024).
pIC50: −log10 of the molar value. Values joined by “and” are separate entries in the source; they are usually repeats but may differ in a detail not shown here. Identical values can stand only once.

Test system: 361931-004-R-J1-PDC multicell spheroid viability
Test: Anticancer human tumor 361931-004-R-J1-PDC patient-derived colon adenocarcinoma cell line growth inhibition [PI3K]
Conditions: for viability, T/C: stronger effect = lower value
Method in brief: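 Tumor cells grown as multi-cell spheroids with HUVEC endothelial cells and MSC fibroblast-like stroma were treated with targeted agents combined with inavolisib, alpelisib, duvelisib or copanlisib. Doses fell in half-log steps from near clinical Cmax, else from 10 microM. Viability was measured.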

[1] = curve of first compound, second compound 0.0316 µM
[2] = curve of first compound, second compound 0.1 µM
[3] = curve of first compound, second compound 0.316 µM
[4] = curve of first compound, second compound 1 µM
[5] = second compound 0.0316 µM, first compound 0.0316 µM
[6] = second compound 0.0316 µM, first compound 0.1 µM
[7] = second compound 0.1 µM, first compound 0.0316 µM
[8] = second compound 0.1 µM, first compound 0.1 µM
[9] = second compound 0.316 µM, first compound 0.0316 µM
[10] = second compound 0.316 µM, first compound 0.1 µM
[11] = second compound 1 µM, first compound 0.0316 µM
[12] = second compound 1 µM, first compound 0.1 µM
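Note: spheroids exposed to agents for seven days before readout.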

CC(C)n1nc(-c2ccc3oc(N)nc3c2)c2c(N)ncnc21 + CC(Nc1ccc2c(c1)OCCn1cc(N3C(=O)OCC3C(F)F)nc1-2)C(N)=O
pIC50 (curve of first compound, second compound 0.00316 µM): < 7.00 | pIC50 (curve of first compound, second compound 0.01 µM): < 7.00 | pIC50 [1]: < 7.00 | pIC50 [2]: 7.02 | pIC50 [3]: < 7.00 | pIC50 [4]: 7.26 | viability, T/C (second compound 0.00316 µM, first compound 0.000316 µM): 102% | viability, T/C (second compound 0.00316 µM, first compound 0.001 µM): 106% | viability, T/C (second compound 0.00316 µM, first compound 0.00316 µM): 98.2% | viability, T/C (second compound 0.00316 µM, first compound 0.01 µM): 95.6% | viability, T/C (second compound 0.00316 µM, first compound 0.0316 µM): 101% | viability, T/C (second compound 0.00316 µM, first compound 0.1 µM): 59.9% | viability, T/C (second compound 0.01 µM, first compound 0.000316 µM): 109% | viability, T/C (second compound 0.01 µM, first compound 0.001 µM): 104% | viability, T/C (second compound 0.01 µM, first compound 0.00316 µM): 97.5% | viability, T/C (second compound 0.01 µM, first compound 0.01 µM): 91.6% | viability, T/C (second compound 0.01 µM, first compound 0.0316 µM): 95.8% | viability, T/C (second compound 0.01 µM, first compound 0.1 µM): 57.3% | viability, T/C (second compound 0.0316 µM, first compound 0.000316 µM): 102% | viability, T/C (second compound 0.0316 µM, first compound 0.001 µM): 98.7% | viability, T/C (second compound 0.0316 µM, first compound 0.00316 µM): 91.9% | viability, T/C (second compound 0.0316 µM, first compound 0.01 µM): 91.2% | viability, T/C [5]: 94.1% | viability, T/C [6]: 50.2% | viability, T/C (second compound 0.1 µM, first compound 0.000316 µM): 102% | viability, T/C (second compound 0.1 µM, first compound 0.001 µM): 116% | viability, T/C (second compound 0.1 µM, first compound 0.00316 µM): 100% | viability, T/C (second compound 0.1 µM, first compound 0.01 µM): 91.2% | viability, T/C [7]: 87.2% | viability, T/C [8]: 47.6% | viability, T/C (second compound 0.316 µM, first compound 0.000316 µM): 84.9% | viability, T/C (second compound 0.316 µM, first compound 0.001 µM): 96.3% | viability, T/C (second compound 0.316 µM, first compound 0.00316 µM): 106% | viability, T/C (second compound 0.316 µM, first compound 0.01 µM): 81.7% | viability, T/C [9]: 75.6% | viability, T/C [10]: 51.9% | viability, T/C (second compound 1 µM, first compound 0.000316 µM): 89% | viability, T/C (second compound 1 µM, first compound 0.001 µM): 80.6% | viability, T/C (second compound 1 µM, first compound 0.00316 µM): 82.4% | viability, T/C (second compound 1 µM, first compound 0.01 µM): 68.8% | viability, T/C [11]: 69.9% | viability, T/C [12]: 32.6%

CC(Nc1ccc2c(c1)OCCn1cc(N3C(=O)OCC3C(F)F)nc1-2)C(N)=O (stereo not drawn)
viability, T/C (compound 0.00316 µM): 98.9% [middle of 8 runs] | viability, T/C (compound 0.01 µM): 97.8% [middle of 8 runs] | viability, T/C (compound 0.0316 µM): 98.1% [middle of 8 runs] | viability, T/C (compound 0.1 µM): 94.3% [middle of 8 runs] | viability, T/C (compound 0.316 µM): 92.9% [middle of 8 runs] | viability, T/C (compound 1 µM): 88.1% [middle of 8 runs] | pIC50 (compound alone, run of 05/08/2023): < 6.00

CCCS(=O)(=O)Nc1ccc(F)c(C(=O)c2c[nH]c3ncc(-c4ccc(Cl)cc4)cc23)c1F + CC(Nc1ncnc2nc[nH]c12)c1cc2cccc(Cl)c2c(=O)n1-c1ccccc1
pIC50 [1]: 5.28 | pIC50 [2]: 5.28 | pIC50 [3]: 5.25 | pIC50 [4]: 5.28 | pIC50 (curve of first compound, second compound 3.16 µM): 5.26 | pIC50 (curve of first compound, second compound 10 µM): 5.31 | viability, T/C [5]: 111% | viability, T/C [6]: 97.4% | viability, T/C (second compound 0.0316 µM, first compound 0.316 µM): 96.4% | viability, T/C (second compound 0.0316 µM, first compound 1 µM): 97.3% | viability, T/C (second compound 0.0316 µM, first compound 3.16 µM): 84.7% | viability, T/C (second compound 0.0316 µM, first compound 10 µM): 7.53% | viability, T/C [7]: 108% | viability, T/C [8]: 101% | viability, T/C (second compound 0.1 µM, first compound 0.316 µM): 94.3% | viability, T/C (second compound 0.1 µM, first compound 1 µM): 89.2% | viability, T/C (second compound 0.1 µM, first compound 3.16 µM): 84.9% | viability, T/C (second compound 0.1 µM, first compound 10 µM): 6.96% | viability, T/C [9]: 105% | viability, T/C [10]: 101% | viability, T/C (second compound 0.316 µM, first compound 0.316 µM): 96.1% | viability, T/C (second compound 0.316 µM, first compound 1 µM): 90.9% | viability, T/C (second compound 0.316 µM, first compound 3.16 µM): 92.1% | viability, T/C (second compound 0.316 µM, first compound 10 µM): 6.91% | viability, T/C [11]: 100% | viability, T/C [12]: 99.7% | viability, T/C (second compound 1 µM, first compound 0.316 µM): 94.9% | viability, T/C (second compound 1 µM, first compound 1 µM): 96.8% | viability, T/C (second compound 1 µM, first compound 3.16 µM): 83.5% | viability, T/C (second compound 1 µM, first compound 10 µM): 7.4% | viability, T/C (second compound 3.16 µM, first compound 0.0316 µM): 98.8% | viability, T/C (second compound 3.16 µM, first compound 0.1 µM): 102% | viability, T/C (second compound 3.16 µM, first compound 0.316 µM): 103% | viability, T/C (second compound 3.16 µM, first compound 1 µM): 95.5% | viability, T/C (second compound 3.16 µM, first compound 3.16 µM): 90.1% | viability, T/C (second compound 3.16 µM, first compound 10 µM): 7.12% | viability, T/C (second compound 10 µM, first compound 0.0316 µM): 99.3% | viability, T/C (second compound 10 µM, first compound 0.1 µM): 101% | viability, T/C (second compound 10 µM, first compound 0.316 µM): 98.1% | viability, T/C (second compound 10 µM, first compound 1 µM): 88.3% | viability, T/C (second compound 10 µM, first compound 3.16 µM): 78.1% | viability, T/C (second compound 10 µM, first compound 10 µM): 7.3%

Cn1cnc2c(F)c(Nc3ccc(Br)cc3Cl)c(C(=O)NOCCO)cc21
viability, T/C (compound 0.00949 µM): 97.8% [middle of 4 runs] | viability, T/C (compound 0.03 µM): 92.1% [middle of 4 runs] | viability, T/C (compound 0.0949 µM): 90% [middle of 4 runs] | viability, T/C (compound 0.3 µM): 86.4% [middle of 4 runs] | viability, T/C (compound 0.949 µM): 84% [middle of 4 runs] | viability, T/C (compound 3 µM): 62.8% [middle of 4 runs] | pIC50 (curve of compound): 5.61 and < 5.52 and 5.57
